For test [1], the target named is transmembrane precursor of Amphiregulin (pro-AREG) (human (cloned from T4-2 human breast cell cDNA)) (UniProt P15514). Nature of the test: cell-based or functional assay.
The subject of test [2] is T4-2 cells. Nature of the test: 3D culture of T4-2 cells in 80 nM AG1478 with various amounts of EGF. The conditions noted are these: 80 nM AG1478, four days. In kind it is cell-based, human. On the procedure:
It was shown that increasing amounts of the EGFR ligand, EGF, attenuates T4-2 cells response to 80 nM of AG 1478. Cells were cultured for four days in 80 nM AG1478 and various amounts of EGF. Above a threshold EGF concentration between 0.1-1 ng/ml ([…]), the EGFR inhibitor can no longer revert the malignant phenotype. Thus, reversion of T4-2 cells by EGFR inhibition is overcome by the presence of picomolar amounts of EGFR ligand.

For test [3], the system named is T4-2 cells expressing TGFαΔTM. Nature of the test: 3D culture of T4-2 cells expressing soluble TGFα (TGFαΔTM): colony size and morphology. In kind it is cell-based, human. The settings on record: AG1478-treated TGFαΔTM vs proTGFα colonies, P<0.05. How it is done:
(§1) For 3D lrECM culture, T4-2 cells were seeded at 21000 cells per cm^2 on top of Matrigel, overlaid with H14 medium containing 5% Matrigel (BD Biosciences, San Jose, Calif.), and treated with 80 nM AG1478, 20 μM TAPI-2 or the relevant vehicle controls.
(§2) Amphotropic retroviruses were generated by transfection (Lipofectamine; Invitrogen, Carlsbad, Calif.) of the Phoenix packaging cell line (a gift of Dr. Gary Nolan, Stanford) with pBM-IRES-Puro or derivatives containing the AREG or TGFα open reading frames. Two million phoenix cells per 6 cm dish were plated the day prior to transfection and transfected with 2 μg of the appropriate retroviral construct. Retrovirus-containing culture medium was harvested after 48 hrs, supplemented with polybrene to 5 μg/ml and added to HMT3522 cells at 30-50% confluence. Pools of stable infectants were selected in 1 μg/ml puromycin.
(§3) Cloning of pro-AREG and pro-TGFα. The open reading frames of these genes were amplified by PCR from T4-2 cDNA. […]
(§4) Quantitation of colony size in the 3D lrECM culture was performed by image analysis. […] The high resolution digital images were then analyzed using NIH Image analysis software and the cross-sectional area of each colony was determined for many colonies. This process was hand-curated to ensure that aggregates of colonies were not measured as a single colony.

Test [4] concerns T4-2 cells expressing AREGΔTM. The test is described as follows: 3D culture of T4-2 cells expressing soluble AREG (AREGΔTM): colony size and morphology. In kind it is cell-based, human. The settings on record: AG1478-treated AREGΔTM vs proAREG colonies, P<0.0001. On the procedure: as §1, §2, §3, §4
Test [5] deals with T4-2 cells. Nature of the test: 3D lrECM (Matrigel) culture of T4-2 cells: reversion of malignant phenotype, polarity, colony size. In kind it is cell-based, human. How it is done:
as §1
Silencer™ siRNAs against TACE (Ambion, Austin, Tex.) were also transfected in according to the Reverse Transfection protocol of Invitrogen. siRNAs against the following TACE sense strand sequences were transfected either individually (100 nM) or as a pool (33.3 nM each): […]tt (SEQ ID NO: 2), GCAGCAt[…]tt (SEQ ID NO:3) and […]tt (SEQ ID NO: 4). For 3D culture assays, T4-2 cells were trypsinized post-transfection and plated as single cells in Matrigel. Knockdown was assessed by western blot from a parallel transfection 48 hrs post-transfection. Random siRNA sequence was used as a negative control.
Indirect immunofluorescence. Colonies were solubilized from […] culture by shaking in PBS/0.05M EDTA on ice for 30 mins, fixed in 4% paraformaldehyde, permeabilized, stained with anti-α6-integrin (Chemicon, Temecula, Calif.) and counterstained with DAPI.
Quantitation of colony size in the 3D lrECM culture was performed by image analysis. Representative images were captured using a digital camera attached to a phase contrast microscope. The high resolution digital images were then analyzed using NIH Image analysis software and the cross-sectional area of each colony was determined for many colonies. This process was hand-curated to ensure that aggregates of colonies were not measured as a single colony.

Test [6] relates to T4-2 cells. Nature of the test: Relative proliferation of T4-2 cells with AG 1478 with or without TAPI-2 (sensitization, FIG. 5). In kind it is cell-based, human. The conditions noted are these: 0.01 μM AG 1478 alone. How it is done: FIG. 5. […] T4-2 cells were allowed to adhere to 48 well plates. Drugs were added at the indicated concentrations. Conditions were analyzed in triplicate. For comparison, all data were normalized to the 100%.
(FIG. 5) In this experiment, T4-2 cells were allowed to adhere to 48 well plates. Drugs, AG 1478 and TAPI-2, were added at various concentrations of 0.001 μM, 0.01 μM, 0.1 μM, 1 μM, 10 μM and 100 μM. Conditions were analyzed in triplicate. For comparison, all data were normalized to the 100%.

Test [7] has as its system NSCLC. The settings on record: single agent in NSCLC; cited from earlier work.
Test [8] concerns patients with advanced pancreatic adenocarcinoma. The settings on record: cited from earlier work.
Test [9] has as its system T4-2 cells. The test is described as follows: T4-2 cell proliferation with Gefitinib in absence or presence of TGFα. In kind it is cell-based, human. The settings on record: Gefitinib 0 nM, 0.3 nM and 3 nM. How it is done:
Control cells were cultured in the absence of TGFα and cells were cultured in the presence of TGFα. Both the control cells and cells grown with TGFα were also cultured with various amounts of Gefitinib at 0 nM, 0.3 nM and 3 nM.

For test [10], the system named is MAPK. The test is described as follows: MAPK activation in S1 cells by conditioned medium from T4-2 cells. In kind it is cell-based, human. The conditions noted are these: pre-incubation of S1 cells with inhibitor. How it is done: Western blotting. Cells were lysed in 50 mM Tris.HCl pH 7.5, 150 mM NaCl, 0.5% NP40 supplemented with protease and phosphatase inhibitors (Calbiochem, San Diego, Calif.) and clarified by centrifugation. 50 μg of each sample was fractionated by SDS-PAGE, transferred to nitrocellulose membranes and probed with antibodies against the following proteins: phospho-MAPK, Total MAPK, phospho-p70S6-Kinase, (Cell Signaling Technology, MA). E-cadherin (BD Biosciences, CA) was used as a loading control. Blots were developed using Supersignal West Femto (Pierce, Rockland, Ill.). Images were captured using a Fluor Chem 8900 imager (Alpha Innotech, San Leandro, Calif.).

The test system of test [11] is non-small cell lung cancer (NSCLC) patients. The settings on record: two large trials, chemotherapy with Gefitinib; cited from earlier work.
Test [12] has as its system S1 cells. The test is described as follows: S1 cell proliferation with recombinant EGFR ligands. In kind it is cell-based, human. The settings on record: recombinant ligand equimolar to EGF (860 μM). On the procedure:
Cell culture All reagents were purchased from SIGMA (St. Louis, Mo.) except where otherwise noted. HMT3522 cells were cultivated on 2D and 3D substrata in H14 medium, a 50:50 mix of DMEM/F12 (UCSF Cell culture Facility, San Francisco, Calif.) supplemented with 5 μg/ml prolactin, 250 ng/ml insulin, 1.4×10^−6 M hydrocortisone, 10^−10 M β-estradiol, 2.6 ng/ml sodium selenite and 10 μg/ml transferrin. S1 cells were additionally supplemented with 10 ng/ml EGF. In various experiments, cells were supplemented with AREG, TACE, TGFα. In all cases, AREG and TGFα were used at the same molar concentration as EGF ([…]).
Proliferation assays. HMT3522 cells were seeded in 96 well plates and treated (in triplicate) as described in the figure legends. To determine relative growth, 0.1 volumes of WST cell proliferation analysis reagent (Roche, Indianapolis, Ind.) was added to the medium and its formazan metabolite was measured by absorbance at 460 nm.

Entries after “also recorded” stand apart in the source; their conditions may differ.

For the molecule “TACE/ADAM17 expressed endogenously in human breast cancer cells (T4-2, MCF-7) (from UniProt P78536 215-824) (enzyme)”, in [1], the reduction in AREG shedding from MCF-7 cells after siRNA knockdown of TACE came out at 90%.
Take `COc1cc2ncnc(Nc3cccc(Cl)c3)c2cc1OC` [AG1478]: the “threshold EGF concentration above which the EGFR inhibitor can no longer revert the malignant phenotype” value lay within 0.1 to 1 ng/mL in test [2] (3D culture) and 8.6 to 86 pM in test [2] (molar equivalent). In addition, the “colony size in presence of the EGFR inhibitor” value in [3] and in [4] was “consistently larger than those formed by cells infected with either empty vector or with the membrane-tethered pro-forms” in each case. Moreover, the “colony size (cross-sectional area) vs vehicle” value in test [5] (3D culture, four days, p<0.001) is on record as “significantly smaller than those formed by cells treated with vehicle alone; also recorded: significantly different from controls”. Further, the “reversion of the malignant phenotype of T4-2 cells” value in test [5] (3D lrECM culture, 80 nM AG1478 or 20 μM TAPI-2 vs vehicle) is “reversion of the malignant phenotype; also recorded: may be reverted”. In [6], the “reduction in proliferation, EGFR inhibitor alone” value was “no reduction in proliferation”.
For the molecule `C#Cc1cccc(Nc2ncnc3cc(OCCOC)c(OCCOC)cc23)c1` [Erlotinib], the “increase in median progression-free survival time” value in test [7] is reported as “two”. Moreover, in [8] (added to gemcitabine), the “median extension in progression-free survival” value is reported as “six” and the “median increase in overall survival” value was 14 days. Further, the survival benefit result in test [8] is listed as “statistically significant survival benefit”.
With `COc1cc2ncnc(Nc3ccc(F)c(Cl)c3)c2cc1OCCCN1CCOCC1` [Gefitinib], the “effect of added TGFα on sensitivity of T4-2 cells to Gefitinib (cell proliferation)” value in test [9] is listed as “reduced the effectiveness”. In addition, the “activation of MAPK in S1 cells by T4-2 conditioned medium” value in test [10] is “suppressed”. In addition, in test [11], the “survival vs chemotherapy alone” value was “no better than chemotherapy alone”.
Take TGFα: recombinant EGFR ligand TGFα: the “proliferation of non-malignant S1 cells in place of EGF” value in test [12] is “can substitute for EGF to promote proliferation”.

B1: AREG: recombinant EGFR ligand Amphiregulin (protein, UniProt P15514 101-187, looked up)
Amphiregulin: SVRVEQVVKPPQNKTESENTSDKPKRKKKGGKNGKNRRNRKKKNPCNAEFQNFCIHGECKYIEHLEAVTCKCQQEYFGERCGEKSMK
For the molecule B1, the “proliferation of non-malignant S1 cells in place of EGF” value in test [12] is reported as “can substitute for EGF to promote proliferation”.

(Values after patent US20090274626A1, “TARGETING TNF-alpha CONVERTING ENZYME(TACE)- DEPENDENT GROWTH FACTOR SHEDDING IN CANCER THERAPY” (The Regents of the University of California, priority 2005, published 2009).)
